This is an account of results in patent publication US9718792B2, “Isoxazoline hydroxamic acid derivatives as LpxC inhibitors” (priority 2014, dated 2017).

Values after ≈ are worked out from the molar mass of the structure shown.

Assay [1] has as its target P. aeruginosa LpxC (Pseudomonas aeruginosa (strain ATCC 15692 / DSM 22644 / CIP 104116 / JCM 14847 / LMG 12228 / 1C / PRS 101 / PAO1), UniProt P47205). Kind of assay: P. aeruginosa LpxC Inhibition Assay. The conditions noted are these: 1 nM P. aeruginosa LpxC, 2 μM substrate, LC-MS/MS; read-out: PA LpxC IC50. The format is biochemical. An outline of the steps:
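Compounds pre-incubated 30 min at room temperature with 1 nM LpxC, then 2 μM UDP-3-O-(R-3-hydroxydecanoyl)-GlcNAc added; 20 min reaction in 50 mM sodium phosphate pH 7.5, 0.005% Triton X-100, quenched with HOAc. Product quantified by LC-MS/MS against calibration curve; IC50 from four-parameter logistic fit.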

Assay [2] has as its system P. aeruginosa PAO1. Kind of assay: Susceptibility Testing (MIC, broth microdilution). It counts as cell-based, Pseudomonas aeruginosa. The conditions noted are these: P. aeruginosa PAO1, broth microdilution, 20 hours; for MIC: Pseudomonas aeruginosa, PAO1, 20 h, read-out: PAO1 MIC. An outline of the steps:
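Broth microdilution per CLSI in cation-adjusted Mueller-Hinton broth, inoculum ~5×10^5 CFU/mL, two-fold compound dilutions (1% DMSO final). Plates incubated 20 h in ambient air at 35° C. MIC is the lowest concentration preventing visible growth, confirmed by OD 600 nm reading.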

For orientation: IC50 means the concentration that inhibits the measured activity by half. Broadly, the MIC is the smallest concentration in the dilution series that meets the test's criterion for growth inhibition.

Regarding `C[C@@](C[C@H]1CC(c2ccc(-c3ccncc3F)c(F)c2)=NO1)(C(=O)NO)S(C)(=O)=O` [Compound 117, (R)-3-((R)-3-(3-fluoro-4-(3-fluoropyridin-4-yl)phenyl)-4,5-dihydroisoxazol-5-yl)-N-hydroxy-2-methyl-2-(methylsulfonyl)propanamide], the IC50 in assay [1] is less than 500 pM. In assay [2], the MIC came out at 0.35 µg/mL (≈ 0.796 µM).

Turning to `Cc1cc(-c2ccc(C3=NO[C@@H](C[C@](C)(C(=O)NO)S(C)(=O)=O)C3)cc2F)cc(C)n1` [Compound 118, (R)-3-((R)-3-(4-(2,6-dimethylpyridin-4-yl)-3-fluorophenyl)-4,5-dihydroisoxazol-5-yl)-N-hydroxy-2-methyl-2-(methylsulfonyl)propanamide], the IC50 in assay [1] worked out at 4000 pM. Also, the minimum inhibitory concentration (MIC) in assay [2] came out at 4 µg/mL (≈ 8.9 µM).

With `C[C@@](C[C@H]1CC(c2ccc(-c3ccncc3F)cc2F)=NO1)(C(=O)NO)S(C)(=O)=O` [Compound 119, (R)-3-((R)-3-(2-fluoro-4-(3-fluoropyridin-4-yl)phenyl)-4,5-dihydroisoxazol-5-yl)-N-hydroxy-2-methyl-2-(methylsulfonyl)propanamide], in assay [1], the half-maximal inhibitory concentration (IC50) is less than 500 pM. The MIC in assay [2] was found to be 0.71 µg/mL (≈ 1.62 µM).

On to `CCc1ccc(C2=NO[C@@H](C[C@](C)(C(=O)NO)S(C)(=O)=O)C2)c(F)c1` [Compound 120, (R)-3-((R)-3-(4-ethyl-2-fluorophenyl)-4,5-dihydroisoxazol-5-yl)-N-hydroxy-2-methyl-2-(methylsulfonyl)propanamide], for which, in assay [1], the IC50 amounted to 600 pM. The MIC in assay [2] worked out at 0.5 µg/mL (≈ 1.34 µM).

For the compound `Cc1cc(C2=NO[C@@H](C[C@](C)(C(=O)NO)S(C)(=O)=O)C2)ccc1-c1ccc(C[C@@H](C)O)cc1` [Compound 121, (R)—N-hydroxy-3-((R)-3-(4′-((R)-2-hydroxypropyl)-2-methyl-[1,1′-biphenyl]-4-yl)-4,5-dihydroisoxazol-5-yl)-2-methyl-2-(methylsulfonyl)propanamide], the IC50 in assay [1] is less than 500 pM. Also, in assay [2], the MIC was 0.5 µg/mL (≈ 1.05 µM).

Take `C[C@@H](O)Cc1ccc(-c2c(F)cc(C3=NO[C@@H](C[C@](C)(C(=O)NO)S(C)(=O)=O)C3)cc2F)cc1` [Compound 122, (R)-3-((R)-3-(2,6-difluoro-4′-((R)-2-hydroxypropyl)-[1,1′-biphenyl]-4-yl)-4,5-dihydroisoxazol-5-yl)-N-hydroxy-2-methyl-2-(methylsulfonyl)propanamide]: the IC50 in assay [1] is less than 500 pM. Further, the MIC in assay [2] was determined as 0.5 µg/mL (≈ 1.01 µM).

For the compound `CC#Cc1ccc(C2=NO[C@@H](C[C@](C)(C(=O)NO)S(C)(=O)=O)C2)c(F)c1` [Compound 123, (R)-3-((R)-3-(2-fluoro-4-(prop-1-yn-1-yl)phenyl)-4,5-dihydroisoxazol-5-yl)-N-hydroxy-2-methyl-2-(methylsulfonyl)propanamide], in assay [1], the IC50 was less than 500 pM. In addition, in assay [2], the MIC came to 0.25 µg/mL (≈ 0.654 µM).

On to “(R)-3-((R)-3-(2-fluoro-4′-((R)-2-hydroxypropyl)-[1,1′-biphenyl]-4-yl)-4,5-dihydroisoxazol-5-yl)-N-hydroxy-2-methyl-2-(methylsulfonyl)propanamide [Compound 107]”, for which the IC50 in assay [1] was 500 pM. In assay [2], the “PAO1 MIC” value stood at 0.25 µg/mL.
